Legend:
[1] = test system: Lactobacillus plantarum LMG P-26358; assay: growth profile in MRS broth substituted with various sugars; assay type: cell-based; details: for GT (generation time) / μmax (specific growth rate): 2% sugar in the MRS broth; for ability of Lb. plantarum LMG P-26358 to grow on the sugar: sugar acidification profiles
L. innocua = assay: frequency of bacteriocin resistance development; assay type: cell-based, Listeria innocua; details: 2560 au/ml bacteriocin (purified preparation) and/or 320 au/ml nisin
Experimental: The frequency of development of resistance in L. innocua to 2560 au/ml of the bacteriocin produced by Lb. plantarum LMG P-26358 (purified preparation) was calculated at 1.13×10^−3. […] The resistant colonies were picked off and tested for their sensitivity to the bacteriocin produced by Lb. plantarum LMG P-26358.

Compound	GT (generation time) [1]	μmax (specific growth rate) [1]	ability of Lb. plantarum LMG P-26358 to grow on the sugar [1]	frequency of development of resistance in L. innocua (L. innocua)
O=C[C@H](O)[C@@H](O)[C@@H](O)[C@H](O)CO [Galactose]	123 min	0.1473 OD600 · hour^−1	capable of growing	–
OC[C@H]1O[C@H](OC[C@H]2O[C@H](O[C@]3(CO)O[C@H](CO)[C@@H](O)[C@@H]3O)[C@H](O)[C@@H](O)[C@@H]2O)[C@H](O)[C@@H](O)[C@H]1O [Raffinose]	246 min	0.0734 OD600 · hour^−1	unable to metabolise	–
OC[C@H]1O[C@@](CO)(O[C@H]2O[C@H](CO)[C@@H](O)[C@H](O)[C@H]2O)[C@@H](O)[C@@H]1O [Sucrose]	86 min	0.2088 OD600 · hour^−1	capable of growing	–
OC[C@H]1O[C@@H](O[C@H]2[C@H](O)[C@@H](O)C(O)O[C@@H]2CO)[C@H](O)[C@@H](O)[C@H]1O (stereo partly shown) [Lactose]	100 min	0.1815 OD600 · hour^−1	can grow efficiently	–
O=C(CO)[C@@H](O)[C@H](O)[C@H](O)CO [Fructose]	104 min	0.174 OD600 · hour^−1	capable of growing	–
nisin	–	–	–	2.16×10^−2
OC[C@H]1O[C@H](O[C@H]2[C@H](O)[C@@H](O)[C@H](O)O[C@@H]2CO)[C@H](O)[C@@H](O)[C@@H]1O [Maltose]	79 min	0.2277 OD600 · hour^−1	capable of growing	–
OC[C@H]1O[C@H](O[C@H]2O[C@H](CO)[C@@H](O)[C@H](O)[C@H]2O)[C@H](O)[C@@H](O)[C@@H]1O [Trehalose]	92 min	0.1963 OD600 · hour^−1	capable of growing	–
O=C[C@H](O)[C@@H](O)[C@H](O[C@@H]1O[C@H](CO)[C@@H](O)[C@H](O)[C@H]1O)[C@H](O)CO [Cellobiose]	90 min	0.2018 OD600 · hour^−1	capable of growing	–

Reference: patent US9332770B2, “Anti-listerial mixed culture and method for producing cheese” (CSK Food Enrichment B.V., priority 2011, dated 2016)
